Key:
[1] = Cytotoxicity against human HDF cells assessed as reduction in cell viability incubated for 6 hrs followed by irradiation for 30 mins with light at wavelength of 606 nm and measured after 36 to 48 hrs by MTT assay; type: toxicity, cell-based
[2] = Cytotoxicity against human MeWo cells assessed as reduction in cell viability measured after 36 to 48 hrs by MTT assay; type: toxicity, cell-based
[3] = Phototoxicity against human A-375 cells assessed as reduction in cell viability incubated for 6 hrs followed by irradiation for 30 mins with light at wavelength of 606 nm and measured after 36 to 48 hrs by MTT assay; type: functional, cell-based; conditions: A-375, light or radiation study
[4] = Cytotoxicity against human A-375 cells assessed as reduction in cell viability measured after 36 to 48 hrs by MTT assay; type: toxicity, cell-based
[5] = Cytotoxicity against human HDF cells assessed as reduction in cell proliferation at 1 uM incubated for 6 hrs followed by irradiation for 30 mins with light at wavelength of 643 nm and measured after 36 to 48 hrs by MTT assay; type: toxicity, cell-based; conditions: time 2550-3270 min
[6] = Phototoxicity against human MeWo cells assessed as reduction in cell proliferation at 1 uM incubated for 6 hrs followed by irradiation for 30 mins with light at wavelength of 643 nm and measured after 36 to 48 hrs by MTT assay; type: functional; conditions: light or radiation study, time 2550-3270 min
[7] = Cytotoxicity against human HDF cells assessed as reduction in cell viability measured after 36 to 48 hrs by MTT assay; type: toxicity, cell-based
[8] = Phototoxicity against human A-375 cells assessed as reduction in cell viability incubated for 6 hrs followed by irradiation for 30 mins with light at wavelength of 643 nm and measured after 36 to 48 hrs by MTT assay; type: functional, cell-based; conditions: A-375, light or radiation study
[9] = Phototoxicity against human A-375 cells assessed as reduction in cell proliferation at 1 uM incubated for 6 hrs followed by irradiation for 30 mins with light at wavelength of 643 nm and measured after 36 to 48 hrs by MTT assay; type: functional; conditions: A-375, light or radiation study, time 2550-3270 min
[10] = Phototoxicity against human MeWo cells assessed as reduction in cell viability incubated for 6 hrs followed by irradiation for 30 mins with light at wavelength of 643 nm and measured after 36 to 48 hrs by MTT assay; type: functional, cell-based; conditions: light or radiation study
[11] = Phototoxicity against human MeWo cells assessed as reduction in cell viability incubated for 6 hrs followed by irradiation for 30 mins with light at wavelength of 606 nm and measured after 36 to 48 hrs by MTT assay; type: functional, cell-based; conditions: light or radiation study
[12] = Cytotoxicity against human HDF cells assessed as reduction in cell viability incubated for 6 hrs followed by irradiation for 30 mins with light at wavelength of 643 nm and measured after 36 to 48 hrs by MTT assay; type: toxicity, cell-based
[13] = Drug uptake in human MeWo cells at 1 uM measured at 4 degC after 6 hrs by fluorescence based analysis; type: ADME, cell-based
[14] = Drug uptake in human MeWo cells at 1 uM measured at 37 degC after 6 hrs by fluorescence based analysis; type: ADME, cell-based
[15] = Drug uptake in human HDF cells at 1 uM measured at 4 degC after 6 hrs by fluorescence based analysis; type: ADME, cell-based
[16] = Drug uptake in human HDF cells at 1 uM measured at 37 degC after 6 hrs by fluorescence based analysis; type: ADME, cell-based
[17] = Drug uptake in human HDF cells at 1 uM measured per 10^3 cells after 24 hrs by fluorescence based analysis; type: ADME, cell-based
[18] = Drug uptake in cytoplasmic organelles in human MeWo cells at 5 uM incubated for 6 hrs by DIOC6(3) dye based fluorescence microscopy; type: ADME, cell-based
[19] = Drug uptake in nucleus in human HDF cells at 5 uM incubated for 6 hrs by DIOC6(3) dye based fluorescence microscopy; type: ADME, cell-based
[20] = Drug uptake in human MeWo cells at 1 uM measured after 6 hrs by fluorescence based analysis; type: ADME, cell-based
[21] = Drug uptake in human A-375 cells at 1 uM measured after 6 hrs by fluorescence based analysis; type: ADME, cell-based; conditions: a-375, 6 h
[22] = Drug uptake in cytoplasmic organelles in human HDF cells at 5 uM incubated for 6 hrs by DIOC6(3) dye based fluorescence microscopy; type: ADME, cell-based
[23] = Drug uptake in nucleus in human MeWo cells at 5 uM incubated for 6 hrs by DIOC6(3) dye based fluorescence microscopy; type: ADME, cell-based
[24] = Drug uptake in human HDF cells at 1 uM measured after 6 hrs by fluorescence based analysis; type: ADME, cell-based

Row | SMILES | IC50 [1] | IC50 [2] | IC50 [3] | IC50 [4] | IC50 [7] | IC50 [8] | IC50 [10] | IC50 [11] | IC50 [12] | Drug uptake [14] | Drug uptake [16] | further results
1 | CCCCCCCCCCCC(=O)Nc1ccc(-c2c3nc(c(-c4ccc[n+](C)c4)c4ccc([nH]4)c(-c4ccc[n+](C)c4)c4nc(c(-c5ccc[n+](C)c5)c5ccc2[nH]5)C=C4)C=C3)cc1 | 6.26 µM | > 100 µM | 0.33 µM | > 100 µM | > 100 µM | 0.29 µM | 2.36 µM | 4.27 µM | 4.65 µM | – | – | inhibition at 1 µM [5]: < 20%; inhibition at 1 µM [6]: 40%; inhibition at 1 µM [9]: > 90%
2 | CCCCCCCC(=O)Nc1ccc(-c2c3nc(c(-c4ccc[n+](C)c4)c4ccc([nH]4)c(-c4ccc[n+](C)c4)c4nc(c(-c5ccc[n+](C)c5)c5ccc2[nH]5)C=C4)C=C3)cc1.[Cl-].[Cl-].[Cl-] | 32 µM | > 100 µM | 3.22 µM | > 100 µM | > 100 µM | 2.5 µM | 8.31 µM | 18.9 µM | 25.7 µM | Active | Active | Drug uptake [13]: Active; Drug uptake [15]: Active
3 | CCCCCCCCCCCCCCCCCC(=O)Nc1ccc(-c2c3nc(c(-c4ccc[n+](C)c4)c4ccc([nH]4)c(-c4ccc[n+](C)c4)c4nc(c(-c5ccc[n+](C)c5)c5ccc2[nH]5)C=C4)C=C3)cc1.[Cl-].[Cl-].[Cl-] | 0.67 µM | > 100 µM | 0.37 µM | > 100 µM | > 100 µM | 0.09 µM | 0.35 µM | 0.48 µM | 0.32 µM | Active | Active | Drug uptake [17]: ~ 95 nM; Drug uptake [18]: Active; Drug uptake [19]: Not_active; Drug uptake [20]: Active; Drug uptake [21]: Active; Drug uptake [22]: Active; Drug uptake [23]: Not_active; Drug uptake [24]: Active

Reference: ChEMBL document CHEMBL6153031, “Impact of the hydrophilic-lipophilic balance of free-base and Zn(II) tricationic pyridiniumporphyrins and irradiation wavelength in PDT against the melanoma cell lines” (Eur J Med Chem, 2025)
